One test concerns E. coli. Put plainly: Human volunteer study with Vaseline healthy white cream, E. coli count on forearm. Particulars: two times per day for 1 day, control 4.3. The format is in vivo. The protocol: An experiment using the following protocol was conducted: • 1. Volunteers were given Lux™ soap for use and asked not to use any other soap or moisturizers on their forearm for 7 days before the start of the study. • 2. Volunteer were be asked to apply Vaseline™ healthy white base cream and Vaseline™ healthy white formulated with Niacinamide (1%, 2% and 3%) at various spots on the forearm. • 3. Volunteers were asked to repeat […] for two times per day for 1 day, morning after bath and night just before sleep. The volunteers were asked not to wash the forearms after application of formulations at night. • 4. On day 2, the forearms were washed by the investigator with a non-antibacterial soap bar and asked the volunteers to wait for 6 hours under controlled conditions (24 ±2°C and 45%±5% RH) • 5. After 6 hours of waiting, ∼10^6 E. coli were applied on the forearm to each spot separately. The contact time of E. coli on skin was 15 minutes. • 6. After 15 minutes, the sample was extracted from the forearm using the cup-rod method. • 7. E. coli was counted using standard microbiological method.

Another test deals with LL-37 gene expression. Put plainly: LL-37 gene expression in primary keratinocytes, quantitative real-time PCR. The format is cell-based. Particulars: Homo sapiens, Keratinocyte, 18 hours, Niacinamide 1.22 mg/ml, control = 1.0, read-out: Fold change (LL-37 gene expression). Here is the method: (§1) Human primary keratinocytes prepared from neonatal foreskin were obtained from (Lonza India) and cultured in serum-free keratinocyte growth medium with defined growth supplements (Invitrogen). Keratinocytes were cultured in 12 and 24 well tissue culture plates (BD Falcon) and treated cells at a confluence of 60-70%. Keratinocytes stimulation was performed in KGM with growth supplement and all experiment was done between passages 3 to 5.
(§2) NHEKs were cultured in 12-well plates (BD, Falcon) at 6 × 10^4 cells per well. After 24h of incubation, 50% media was replaced with fresh media. On day 3, cells were treated with different concentrations of Niacinamide with fresh media for 16-18 hours. Cells were harvested in RLT buffer (Qiagen) and samples were stored at -70°C till used for RNA isolation.
(§3) Total RNA was isolated using RNeasy Mini kit from Qiagen, according to the manufacturer's instructions. […]
(§4) Real time PCR was carried out using SYBR green method as per the manufacturer's (Bio-Rad, USA) instructions using thermal controlled Chromo4 machine (Bio-Rad, USA). 5µl of 1:10 diluted sample of cDNA and 1.5pmole of specific primers were used in each reaction by using a standardized PCR program (i.e. 94°C for 5 minutes followed by 50 cycles of "94°C for 15 seconds, 60°C for 30sec, 72°C for 30 seconds) and results were analysed by using 2^-ΔΔCT method. […]
For orientation: Real-time PCR tracks product formation cycle by cycle.

The next test relates to Lactoferrin. Put plainly: AMP secretion by primary keratinocytes, mass spectrometry of secretome (PSM). The format is cell-based. Particulars: Niacinamide 1mg/ml, 72 hours; control sample 1. The protocol:
(§5) The following procedure was used to determine the AMPs induced as a consequence of niacinamide on keratinocte cells. • 1. Primary keratinocytes were seeded in 12 well plates with 1 ml of KGM complete media. (Seeded 60,000 cells/well at Passage-4). • 2. Plates were incubated in the CO2 incubator for 48 hours. • 3. After 48 hours of incubation, cells were treated with and without Niacinamide 1mg/ml concentration in duplicate wells (fresh media was used for treatment). • 4. After 72 hours of incubation, cell culture supernatant was transferred in to 1.5 ml eppendorf tubes respectively. • 5. Samples were then passed through 20 kDa cutoff filters to remove high molecular weight proteins. • 6. Eluted samples, containing <20kDa proteins were transferred to 15ml sterile centrifuge tubes. • 7. Then, chilled acetone (HPLC grade) was added to the eluted samples (1 ml of sample:4ml of acetone) • 8. Tubes were transferred to -20°C for 24 hours to precipitate the proteins. • 9. After 24 hours, tubes were centrifuged at 14000g for 40 minutes at 4°C. • 10. The supernatant was discarded and the protein pellet was analysed using mass spectrometry for proteins.
(§6) The increased level of secretion of AMPs is measured by a PSM value (a peptide spectrum match scoring function) which is a relative measure of abundance of the peptide in the secretome. Table - 5

In a further test the test system is S-100-A11. Described as above. The format is cell-based. Particulars: Niacinamide 1mg/ml, 72 hours; control sample 2. The protocol:
as §5, §6

For the next test, the system named is S-100-A8. The description is as above. Particulars: Niacinamide 1mg/ml, 72 hours; control sample 1. The class given is cell-based. Here is the method:
as §5, §6

For a further test, the system named is Lysozyme C. The description is as above. Particulars: Niacinamide 1mg/ml, 72 hours; control sample 2. The format is cell-based. Here is the method: as §5, §6
A further test relates to Lipocalin -2. The description is as above. The class given is cell-based. Particulars: Niacinamide 1mg/ml, 72 hours; control sample 1. Here is the method: as §5, §6
The next test concerns Elafin. Described as above. The format is cell-based. Particulars: Niacinamide 1mg/ml, 72 hours; control sample 1. The protocol:
as §5, §6

In another test the test system is Lipocalin-1. Described as above. The class given is cell-based. Particulars: Niacinamide 1mg/ml, 72 hours; control sample 0. The protocol:
as §5, §6

The test system of a further test is S100-A9. Described as above. The class given is cell-based. Particulars: Niacinamide 1mg/ml, 72 hours; control sample 2. The protocol: as §5, §6
For a further test, the system named is Psoriasin (S100A7). Put plainly: Psoriasin ELISA of keratinocyte culture supernatant. The format is cell-based, human. Particulars: detected by ELISA, keratinocytes. The protocol:
as §1
Primary keratinocytes were seeded in 12-well plates (BD falcon). At 60 to 70% confluency, cells were treated with different concentration of Niacinamide for 72h. After 72 hours of incubation cell culture supernatant was stored at -70°C until used for ELISA. All ELISA reagents and samples were brought to room temperature prior to the assay. Cell culture supernatant samples were centrifuged at 5000 rpm for 10 minutes before use. 100 ↘l of undiluted sample of cell culture supernatant was used for checking the psoriasin level by using ELISA kit from CircuLex. The clinical samples were diluted in to 1:25 in dilution buffer and used 100↘l from diluted samples for checking psoriasin level by ELISA. In case of LL-37, 100 ↘l of undiluted samples from in vitro as well as clinical samples were used for checking LL-37 level by ELISA (Hycult Biotech).
In general terms: In an ELISA, binding on a coated surface is turned into a signal by an enzyme label.

The test system of test [1] is psoriasin gene expression. Put plainly: Psoriasin gene expression in primary keratinocytes, quantitative real-time PCR. The format is cell-based, human. Here is the method: as §1, §2, §3, §4
A further test has as its system E. coli 10536. Put plainly: In vivo forearm study with lotion, residual E. coli by cup scrub method. Particulars: lotion with 3% niacinamide, forearm of human volunteers, twice a day. The protocol: To confirm the findings from the in vitro experiments, the effect of Niacinamide on healthy human volunteers was tested in vivo. The volunteers were asked to apply a lotion with and without niacinamide (3%) on their forearm twice a day. After 7 days of application, the spots were extracted in PBS and ELISA was performed for detection of Psoriasin and LL-37 AMPs.
Glycerol stock of E. coli (10536) was inoculated in 30 ml TSB medium and culture was incubated overnight at 37°C in shaker incubator. Overnight culture was sub cultured on TSA slants and incubated overnight at 37°C then the slants were stored at 4°C (once in 15 days, slants were prepared freshly).
E. coli culture from slant was sub cultured on TSA plate and incubated overnight at 37°C. Overnight grown plate culture of E. coli was suspended in 6 to 7 ml of Sodium phosphate buffer (10mM). Density of culture was adjusted to 1 OD620 using spectrophotometer and used for clinical studies.
This technique is included in the ASTM method, E2752 - 10 (Standard guide for evaluation of residual effectiveness of antibacterial). The cup and rod were made up of Teflon and the area of the cup is 2.84 cm^2. The cup was used to hold the buffer on skin and rod was used for scrubbing, for better recovery of skin AMP and/or residual bacteria from skin. The duration of scrubbing was 1 min. […]

The values that follow come from patent publication EP2742942A1, “Niacinamide for inducing generation of antimicrobial peptides” (Unilever N.V., priority 2012, dated 2014).

For `NC(=O)c1cccnc1` [Niacinamide], the entries for the “Residual log of E. Coli” value with E. coli (1 % niacinamide in Vaseline healthy white cream), in the test on E. coli (2% niacinamide in Vaseline healthy white cream) and with E. coli (3% niacinamide in Vaseline healthy white cream) were 3.5, 3.0 and 2.7, respectively. The fold induction at 1220 µg/mL was determined as 2.4 in the test with LL-37 gene expression and 1.1 in [1] (Homo sapiens, Keratinocyte, primary keratinocytes, 18 hours, Niacinamide 1.22 mg/ml, control = 1.0, read-out: Fold change (psoriasin gene expression)). Also, the “PSM value with niacinamide treatment, Lactoferrin” value with Lactoferrin is 7. Also, the “PSM value with niacinamide treatment, S-100-A11” value with S-100-A11 is 5. Moreover, the “PSM value with niacinamide treatment, S-100-A8” value in the test on S-100-A8 was determined as 3. The “PSM value with niacinamide treatment, Lysozyme C” value in the test on Lysozyme C is recorded as 4. Also, the “PSM value with niacinamide treatment, Lipocalin -2” value in the test on Lipocalin -2 stood at 4. For the same molecule, in the test with Elafin, the “PSM value with niacinamide treatment, Elafin” value is on record as 3. Further, the “PSM value with niacinamide treatment, Lipocalin-1” value in the test on Lipocalin-1 came to 2. In the test on S100-A9, the “PSM value with niacinamide treatment, S100-A9” value is listed as 4. The “secretion of psoriasin AMP (in words)” value in the test on Psoriasin (S100A7) is on record as “able to induce the secretion of psoriasin AMP”. Besides, the “induction of psoriasin gene expression (in words)” value in test [1] (1.22 mg/ml) is reported as “unable to induce psoriasin gene expression”. Also, in the test on E. coli 10536 (n= 28, basal 4.21, lotion without niacinamide 3.44), the “Residual log of E.Coli measured after one day of applying a composition” value is reported as 2.31. Moreover, the “Residual log of E.Coli measured after 7 days of applying a composition” value in the test on E. coli 10536 (n= 34, basal 4.41, lotion without niacinamide 3.56) was found to be 2.39.
